Data published in publication PMC6261661 (ACS chemical neuroscience, 2018).
Square brackets hold non-standard residues; d marks the D form. Peptide text beside a SMILES is read from it. * marks the point of attachment. Bip = N[C@@H](Cc1ccc(-c2ccccc2)cc1)C(=O)O; dBip = N[C@H](Cc1ccc(-c2ccccc2)cc1)C(=O)O; dPhe(4-I) = N[C@H](Cc1ccc(I)cc1)C(=O)O; 2Nal = N[C@@H](Cc1ccc2ccccc2c1)C(=O)O; 4Pal = N[C@@H](Cc1ccncc1)C(=O)O; Octanoyl = CCCCCCCC(=O)*

Assays:
Format in all cases: cell-based
mMC3R [1] = target: T1, mMC3R (Mus musculus, UniProt P33033); test: cell-based; conditions: 100000.0
mMC5R = mMC5R (Mus musculus, UniProt P41149); test: CRE/β-galactosidase reporter gene bioassay, agonist activity at mMC5R; conditions: for mMC5R pharmacology in words: comparisons are to reference peptide 1; for mMC5R Fold Diff.: fold difference in EC50 vs peptide 1, negative prefix = more potent than 1
mMC4R [2] = target: T2, mMC4R (Mus musculus, UniProt P56450); test: CRE/β-galactosidase reporter gene bioassay, agonist activity at mMC4R; conditions: for mMC4R Fold Diff.: fold difference in EC50 vs peptide 1, negative prefix = more potent than 1
mMC1R = mMC1R (Mus musculus, UniProt Q01727); test: CRE/β-galactosidase reporter gene bioassay, agonist activity at mMC1R; conditions: for mMC1R pharmacology in words: comparisons are to reference peptide 1; for EC50: mMC1R EC50, agonist, HEK-293 cells stably expressing receptor, ±SEM; for mMC1R Fold Diff: fold difference in EC50 vs peptide 1, negative prefix = more potent than 1
mMC4R [3] = target: T2, mMC4R; test: Antagonist Schild analysis against agonist MTII at mMC4R; conditions: for mMC4R pharmacology class printed in Fold Diff. column (Ant, SA): Ant = antagonist, SA = some stimulatory activity at 100 µM
mMC3R [4] = target: T1, mMC3R; test: Antagonist Schild analysis against agonist MTII at mMC3R; conditions: for mMC3R pharmacology class printed in Fold Diff column (Ant, SA): Ant = antagonist, SA = some stimulatory activity at 100 µM

T2 sequence (P56450 whole entry): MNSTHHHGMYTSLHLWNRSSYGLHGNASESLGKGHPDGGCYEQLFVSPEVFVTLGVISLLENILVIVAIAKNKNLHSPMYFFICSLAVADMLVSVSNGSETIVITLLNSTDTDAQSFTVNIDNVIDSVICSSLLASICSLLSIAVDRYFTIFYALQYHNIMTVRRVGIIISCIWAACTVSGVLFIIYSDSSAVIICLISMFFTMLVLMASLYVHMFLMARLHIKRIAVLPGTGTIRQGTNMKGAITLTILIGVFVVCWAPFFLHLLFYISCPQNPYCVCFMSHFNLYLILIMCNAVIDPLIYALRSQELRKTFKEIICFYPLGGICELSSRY
Chain of mMC1R (Q01727 whole entry): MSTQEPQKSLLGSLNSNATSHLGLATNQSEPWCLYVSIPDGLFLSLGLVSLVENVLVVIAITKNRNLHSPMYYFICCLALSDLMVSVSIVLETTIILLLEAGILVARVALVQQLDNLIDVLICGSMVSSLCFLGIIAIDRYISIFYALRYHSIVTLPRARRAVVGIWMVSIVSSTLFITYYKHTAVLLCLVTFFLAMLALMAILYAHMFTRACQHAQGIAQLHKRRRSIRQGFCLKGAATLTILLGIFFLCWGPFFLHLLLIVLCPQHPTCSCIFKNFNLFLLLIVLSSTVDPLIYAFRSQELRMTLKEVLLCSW
T1 sequence (P33033 whole entry): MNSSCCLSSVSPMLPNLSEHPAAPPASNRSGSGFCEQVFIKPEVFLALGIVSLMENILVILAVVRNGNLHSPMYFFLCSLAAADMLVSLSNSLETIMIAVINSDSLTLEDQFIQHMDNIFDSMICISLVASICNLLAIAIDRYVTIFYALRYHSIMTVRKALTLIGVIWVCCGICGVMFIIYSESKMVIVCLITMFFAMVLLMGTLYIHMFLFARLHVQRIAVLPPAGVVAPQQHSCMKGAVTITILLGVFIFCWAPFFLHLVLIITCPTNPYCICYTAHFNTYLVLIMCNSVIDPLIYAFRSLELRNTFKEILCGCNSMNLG
Chain of mMC5R (P41149 whole entry): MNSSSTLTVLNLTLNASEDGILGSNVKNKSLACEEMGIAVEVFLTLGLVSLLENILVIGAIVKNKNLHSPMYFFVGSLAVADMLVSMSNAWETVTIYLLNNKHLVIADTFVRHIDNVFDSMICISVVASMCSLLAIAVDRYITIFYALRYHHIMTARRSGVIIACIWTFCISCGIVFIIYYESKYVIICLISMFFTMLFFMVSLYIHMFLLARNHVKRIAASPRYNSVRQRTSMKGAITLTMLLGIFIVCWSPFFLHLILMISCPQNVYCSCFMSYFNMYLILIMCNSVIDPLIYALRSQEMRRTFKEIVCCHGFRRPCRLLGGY

mMC4R pharmacology class printed in Fold Diff. column (Ant, SA) (mMC4R [3])	EC50 (mMC5R)	EC50 (mMC1R)	Kb (mMC4R [3])	Kb (mMC3R [4])	mMC3R pharmacology class printed in Fold Diff column (Ant, SA) (mMC3R [4])	fold preference for the mMC4R versus mMC3R (mMC4R [3]; antagonist)	SMILES	mMC3R relative percentage of stimulation at 100 μM (mMC3R [1])	mMC5R pharmacology in words (mMC5R)	mMC5R Fold Diff. (mMC5R)	mMC4R relative percentage of stimulation at 100 μM (mMC4R [2]; ligand at 100 μM, compared to maximal response generated by α-MSH)	mMC1R pharmacology in words (mMC1R)	mMC1R Fold Diff (mMC1R)	EC50 (mMC4R [2])	mMC4R Fold Diff. (mMC4R [2])
–	62 ± 4 nM	45 ± 12 nM	100 nM	–	–	–	CCCCCCCC(=O)N[C@@H](Cc1cnc[nH]1)C(=O)N[C@H](Cc1ccccc1)C(=O)N[C@@H](CCCNC(=N)N)C(=O)N[C@@H](Cc1ccc(-c2ccccc2)cc1)C(N)=O [Peptide 2, Octanoyl-His-DPhe-Arg-Bip-NH2] (Octanoyl-H[dF]R[Bip]-NH2)	–	–	–	–	–	–	–	–
Ant	31 ± 3 nM	180 ± 20 nM	50.1 nM	316 nM	Ant	–	CCCCCCCC(=O)N[C@@H](Cc1c[nH]cn1)C(=O)N[C@H](Cc1ccccc1)C(=O)N[C@@H](CCCNC(=N)N)C(=O)N[C@H](Cc1ccc(-c2ccccc2)cc1)C(N)=O [Peptide 8, Octanoyl-His-DPhe-Arg-DBip-NH2] (Octanoyl-H[dF]R[dBip]-NH2)	–	decreased potencies	6	–	equipotent	–	–	–
Ant	610 ± 250 nM	2900 ± 1500 nM	1.26 nM	79.4 nM	Ant	66 fold	CC(=O)N[C@@H](Cc1ccncc1)C(=O)N[C@H](Cc1ccc(I)cc1)C(=O)N[C@@H](CCCNC(=N)N)C(=O)N[C@@H](Cc1c[nH]c2ccccc12)C(N)=O [Peptide 16, Ac-4PAL-(pI)DPhe-Arg-Trp-NH2] (Ac-[4Pal][dPhe(4-I)]RW-NH2)	–	–	114	–	–	20	–	–
Ant	440 ± 70 nM	5200 ± 1700 nM	79.4 nM	631 nM	Ant	–	CC(=O)N[C@@H](Cc1ccc(-c2ccccc2)cc1)C(=O)N[C@H](Cc1ccc(I)cc1)C(=O)N[C@@H](CCCNC(=N)N)C(=O)N[C@@H](Cc1c[nH]c2ccccc12)C(N)=O [Peptide 17, Ac-Bip-(pI)DPhe-Arg-Trp-NH2] (Ac-[Bip][dPhe(4-I)]RW-NH2)	–	–	83	–	–	37	–	–

SMILES	mMC4R pharmacology class printed in Fold Diff. column (Ant, SA) (mMC4R [3])	EC50 (mMC5R)	EC50 (mMC1R)	Kb (mMC4R [3])	Kb (mMC3R [4])	mMC3R pharmacology class printed in Fold Diff column (Ant, SA) (mMC3R [4])	fold preference for the mMC4R versus mMC3R (mMC4R [3]; antagonist)	mMC3R relative percentage of stimulation at 100 μM (mMC3R [1])	mMC5R pharmacology in words (mMC5R)	mMC5R Fold Diff. (mMC5R)	mMC4R relative percentage of stimulation at 100 μM (mMC4R [2]; ligand at 100 μM, compared to maximal response generated by α-MSH)	mMC1R pharmacology in words (mMC1R)	mMC1R Fold Diff (mMC1R)	EC50 (mMC4R [2])	mMC4R Fold Diff. (mMC4R [2])
CCCCCCCC(=O)N[C@@H](Cc1c[nH]cn1)C(=O)N[C@H](Cc1ccccc1)C(=O)N[C@@H](CCCNC(=N)N)C(=O)N[C@@H](Cc1ccc(-c2ccccc2)cc1)C(N)=O [Peptide 2, Octanoyl-His-DPhe-Arg-Bip-NH2] (Octanoyl-H[dF]R[Bip]-NH2)	Ant	–	–	–	–	–	–	50%−65%	decreased potencies	12	40%	equipotent	–	–	–
CC(=O)N[C@@H](Cc1ccncc1)C(=O)N[C@H](Cc1ccc(-c2ccccc2)cc1)C(=O)N[C@@H](CCCNC(=N)N)C(=O)N[C@@H](Cc1c[nH]c2ccccc12)C(N)=O [Peptide 22, Ac-4PAL-DBip-Arg-Trp-NH2] (Ac-[4Pal][dBip]RW-NH2)	–	1300 ± 300 nM	1900 ± 720 nM	–	316 nM	SA Ant	–	45%	–	235	–	–	14	1300 ± 200 nM	92
CC(=O)N[C@@H](Cc1c[nH]cn1)C(=O)N[C@H](Cc1ccc(-c2ccccc2)cc1)C(=O)N[C@@H](CCCNC(=N)N)C(=O)N[C@@H](Cc1ccc2ccccc2c1)C(N)=O [Peptide 36, Ac-His-DBip-Arg-Nal(2’)-NH2] (Ac-H[dBip]R[2Nal]-NH2)	–	20.7 ± 4.1 nM	17 ± 5.4 nM	–	25.1 nM	SA Ant	–	50%	less potent	4	–	more potent	−8	52 ± 18 nM	4
